Among the data in the supplement of paper PMC10307832 are relative viability values, retold here.

Common to all, as to experiment: relative viability (nuclei count vs DMSO), 5 days (fraction); higher = more cells survive
Compound in the test “Carboplatin + Luminespib”: C1CC(C1)(C(=O)O)C(=O)O.[NH2-].[NH2-].[Pt+2] [Carboplatin] + CCNC(=O)c1noc(-c2cc(C(C)C)c(O)cc2O)c1-c1ccc(CN2CCOCC2)cc1 [Luminespib] (partner 0.01 µM)
A digest of the protocol:
(§1)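 Values are medians from duplicate plates. Each reflects relative viability, defined as the nuclei count of treated wells over that of vehicle wells. Lung cancer cell lines in 1536-well plates were pin-tool dosed one day after seeding with one drug alone or with a fixed anchor-drug dose plus five library-drug doses (not always all listed) in √10 steps, then fixed, stained and imaged at 4× after 5 days.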

Compound in the test “Carboplatin + Dasatinib”: C1CC(C1)(C(=O)O)C(=O)O.[NH2-].[NH2-].[Pt+2] [Carboplatin] + Cc1nc(Nc2ncc(C(=O)Nc3c(C)cccc3Cl)s2)cc(N2CCN(CCO)CC2)n1 [Dasatinib] (partner 0.075 µM)
The method, boiled down:
as §1

Compound in the test “GSK126 + Navitoclax”: CC[C@H](C)N1C=C(C2=C(C=C(C=C21)C3=CN=C(C=C3)N4CCNCC4)C(=O)NCC5=C(C=C(NC5=O)C)C)C [GSK126] + CC1(C)CCC(c2ccc(Cl)cc2)=C(CN2CCN(c3ccc(C(=O)NS(=O)(=O)c4ccc(N[C@H](CCN5CCOCC5)CSc5ccccc5)c(S(=O)(=O)C(F)(F)F)c4)cc3)CC2)C1 [Navitoclax] (partner 0.5 µM)
The method, boiled down: as §1

Compound in the test “GSK126 + Alpelisib”: CC[C@H](C)N1C=C(C2=C(C=C(C=C21)C3=CN=C(C=C3)N4CCNCC4)C(=O)NCC5=C(C=C(NC5=O)C)C)C [GSK126] + Cc1nc(NC(=O)N2CCC[C@H]2C(N)=O)sc1-c1ccnc(C(C)(C)C(F)(F)F)c1 [Alpelisib] (partner 2 µM)
A digest of the protocol:
as §1

For UMC-11, the relative viability in the test with Carboplatin + Luminespib (first compound 0.08 µM) came out at 0.961; with Carboplatin + Luminespib (first compound 0.253 µM), 1.01; with Carboplatin + Luminespib (first compound 0.8 µM), 1; with Carboplatin + Luminespib (first compound 2.53 µM), 0.955; with Carboplatin + Luminespib (first compound 8 µM), 0.651; with Carboplatin + Dasatinib (first compound 0.08 µM), 0.515. Also, the relative viability with Carboplatin + Dasatinib (first compound 0.253 µM) stood at 0.501; with Carboplatin + Dasatinib (first compound 0.8 µM), 0.461; in the test with Carboplatin + Dasatinib (first compound 2.53 µM), 0.502; with Carboplatin + Dasatinib (first compound 8 µM) it was 0.491; with GSK126 + Navitoclax (first compound 0.08 µM) it was 0.323; with GSK126 + Navitoclax (first compound 0.253 µM), 0.314. For the same cell line, the relative viability stood at 0.316 with GSK126 + Navitoclax (first compound 0.8 µM); 0.264 in the test with GSK126 + Navitoclax (first compound 2.53 µM); 0.279 in the test with GSK126 + Navitoclax (first compound 8 µM); 1.03 with GSK126 + Alpelisib (first compound 0.08 µM); 1.1 with GSK126 + Alpelisib (first compound 0.253 µM); 0.983 with GSK126 + Alpelisib (first compound 0.8 µM). The relative viability with GSK126 + Alpelisib (first compound 2.53 µM) worked out at 0.961; with GSK126 + Alpelisib (first compound 8 µM), 1.17.
